# Patent US20230167088A1, “1-PYRAZINYLPYRAZOLYL-3-OXYALKYL ACIDS AND THEIR DERIVATIVES, AND THEIR USE FOR CONTROL OF UNDESIRED PLANT GROWTH” (BAYER AKTIENGESELLSCHAFT, priority 2020, published 2023)
# Assays:
# ECHCG [1] = assay: Herbicidal pre-emergence action 2b (doubly sown, 1280 g/ha); assay type: in vivo, Echinochloa crus-galli; details: doubly sown pots, dosage 1280 g/ha, visual scoring after about 3 weeks
# Procedure, shortened: (§1)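 Seeds are placed in sandy loam and covered, then the formulated compound is applied to the covering soil in water equivalent to 600 litres per hectare with 0.5% additive. Pots stay in the greenhouse under good growth conditions. Activity is rated visually as a percentage of untreated controls after about three weeks.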
# MATIN [2] = assay: Herbicidal post-emergence action 1b (twin sowing, 1280 g/ha); assay type: in vivo, Matricaria inodora; details: dosage 1280 g/ha, visual rating about 3 weeks after treatment
# Procedure, shortened: (§2)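 Post-emergence foliar spray on one-leaf weeds grown two species per pot in sandy loam; ~3 weeks later, visual rating from 0% (as control) to 100% (plants died).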
# LOLRI = assay: Herbicidal pre-emergence action 2a (greenhouse pots, visual scoring); assay type: in vivo, Lolium rigidum; details: dosage 320 g/ha, visual scoring after about 3 weeks vs untreated controls
# Procedure, shortened: (§3)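 The soil covering sown seeds is treated with an aqueous suspension or emulsion of wettable powder or emulsion concentrate (0.5% additive, 600 l/ha), corresponding to 320 g/ha and/or 80 g/ha. After about 3 weeks of greenhouse growth, damage is scored visually as a percentage.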
# AMARE = assay: Herbicidal pre-emergence action 2b (doubly sown, 1280 g/ha); assay type: in vivo, Amaranthus retroflexus; details: doubly sown pots, dosage 1280 g/ha, visual scoring after about 3 weeks
# Procedure, shortened: as §1
# DIGSA [3] = assay: Herbicidal post-emergence action 1b (twin sowing, 1280 g/ha); assay type: in vivo, Digitaria sanguinalis; details: dosage 1280 g/ha, visual rating about 3 weeks after treatment
# Procedure, shortened: as §2
# POLCO = assay: Herbicidal pre-emergence action 2a (greenhouse pots, visual scoring); assay type: in vivo, Polygonum convolvulus; details: dosage 320 g/ha, visual scoring after about 3 weeks vs untreated controls
# Procedure, shortened: as §3
# DIGSA [4] = assay: Herbicidal pre-emergence action 2b (doubly sown, 1280 g/ha); assay type: in vivo, Digitaria sanguinalis; details: doubly sown pots, dosage 1280 g/ha, visual scoring after about 3 weeks
# Procedure, shortened: as §1
# SETVI = assay: Herbicidal post-emergence action 1a (greenhouse pots, visual rating); assay type: in vivo, Setaria viridis; details: rated visually about 3 weeks after treatment, 100% = plants have died, 0% = like control plants
# Procedure, shortened: (§4)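 Weeds and crops sown in sandy loam in greenhouse pots were sprayed post-emergence at the one-leaf stage (2–3 weeks after sowing) with WP or EC formulations plus 0.5% additive at 600 l/ha water, 320 and/or 80 g/ha. About 3 weeks later damage was rated visually against untreated controls (0% = no effect, 100% = dead).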
# DIGSA [5] = assay: Herbicidal pre-emergence action 2a (greenhouse pots, visual scoring); assay type: in vivo, Digitaria sanguinalis; details: dosage 320 g/ha, visual scoring after about 3 weeks
# Procedure, shortened: as §3
# MATIN [6] = assay: Herbicidal post-emergence action 1a (greenhouse pots, visual rating); assay type: in vivo, Matricaria inodora; details: visual rating about 3 weeks after treatment
# Procedure, shortened: as §4
# ABUTH [7] = assay: Herbicidal post-emergence action 1b (twin sowing, 1280 g/ha); assay type: in vivo, Abutilon theophrasti; details: dosage 1280 g/ha, visual rating about 3 weeks after treatment
# Procedure, shortened: as §2
# ECHCG [8] = assay: as above; assay type: in vivo, Echinochloa crus-galli; details: dosage 1280 g/ha, visual rating about 3 weeks after treatment
# Procedure, shortened: as §2
# PHBPU = assay: Herbicidal pre-emergence action 2a (greenhouse pots, visual scoring); assay type: in vivo, Pharbitis purpurea; details: dosage 320 g/ha, visual scoring after about 3 weeks vs untreated controls
# Procedure, shortened: as §3
# ABUTH [9] = assay: as above; assay type: in vivo, Abutilon theophrasti; details: dosage 320 g/ha, visual scoring after about 3 weeks vs untreated controls
# From the text: [table] a) Seeds of monocotyledonous and dicotyledonous weed plants and crop plants are placed in plastic or organic plant pots and covered with soil. The compounds of the invention, formulated in the form of wettable powders (WP) or as emulsion concentrates (EC), are then applied onto the surface of the covering soil as aqueous suspension or emulsion with addition of 0.5% additive at a water application rate of 600 1/ha (converted). After the treatment, the pots are placed in a greenhouse and kept under good growth conditions for the trial plants. After about 3 weeks, the effect of the preparations is scored visually in comparison with untreated controls as percentages. For example, 100% activity=the plants have died, 0% activity=like control plants. Tables B1 to B15 below show the effects of selected compounds of the general formula (I) according to Tables 1 and 2 on various harmful plants and an application rate corresponding to 320 g/ha and/or 80 g/ha, which were obtained by the experimental procedure mentioned above.
Structure (SMILES),Pre-emergence action at 1280 g/ha against ECHCG in % (ECHCG [1]) [%],Post-emergence action at 1280 g/ha against MATIN in % (MATIN [2]) [%],Pre-emergence action against LOLRI in % (LOLRI) [%],Pre-emergence action at 1280 g/ha against AMARE in % (AMARE) [%],Post-emergence action at 1280 g/ha against DIGSA in % (DIGSA [3]) [%],Pre-emergence action against POLCO in % (POLCO) [%],Pre-emergence action at 1280 g/ha against DIGSA in % (DIGSA [4]) [%],Post-emergence action against SETVI in % (SETVI; Dosage 320 g/ha) [%],Pre-emergence action against DIGSA in % (DIGSA [5]) [%],Post-emergence action against MATIN in % (MATIN [6]; dosage 320 g/ha) [%],Post-emergence action against SETVI in % (SETVI; Dosage 80 g/ha) [%],Post-emergence action at 1280 g/ha against ABUTH in % (ABUTH [7]) [%],Post-emergence action at 1280 g/ha against ECHCG in % (ECHCG [8]) [%],Pre-emergence action against PHBPU in % (PHBPU) [%],Post-emergence action against MATIN in % (MATIN [6]; dosage 80 g/ha) [%],Pre-emergence action against ABUTH in % (ABUTH [9]) [%]
COC(=O)[C@@H](C)Oc1nn(-c2cnccn2)c(-c2cncc(F)c2)c1C#N [Example I-40],100,100,90,100,90,80,100,90,100,,,,,,,
COC(=O)C(C)Oc1nn(-c2cnccn2)c(-c2ccc(F)c(F)c2)c1C#N (racemic) [Example I-22],100,90,100,100,,80,,80,100,80,80,,,,,
COC(=O)COc1nn(-c2cnccn2)c(-c2ccc(F)nc2)c1Br [Example I-11],90,,100,100,100,90,90,90,100,80,,90,90,90,,
COC(=O)[C@@H](C)Oc1nn(-c2cnccn2)c(-c2cccc(F)c2)c1Br [Example I-20],100,100,,100,,80,,90,100,,80,90,100,,,
COC(=O)[C@@H](C)Oc1nn(-c2cnccn2)c(-c2ccnc(F)c2)c1Br [Example I-34],90,90,100,100,100,100,100,90,100,90,80,,100,,,
COC(=O)[C@@H](C)Oc1nn(-c2cnccn2)c(-c2cncc(F)c2)c1Br [Example I-39],100,90,100,100,100,90,100,80,100,90,80,,100,,80,90
COC(=O)COc1nn(-c2cnccn2)c(-c2ccc(F)c(F)c2)c1Br [Example I-15],,,100,,,,,90,100,80,90,,,90,,
CCOC(=O)COc1nn(-c2cnccn2)c(-c2ccc(F)nc2)c1Cl [Example I-53],100,100,80,100,100,90,100,,100,,80,90,100,,80,
C[C@H](Oc1nn(-c2cnccn2)c(-c2cncc(F)c2)c1Br)C(=O)O [Example I-37],100,90,100,100,100,100,100,90,100,80,90,90,100,,,
COC(=O)C(C)Oc1nn(-c2cnccn2)c(-c2ccc(F)c(F)c2)c1Br (racemic) [Example I-16],100,90,100,100,,90,,90,100,80,80,90,100,,,
COC(=O)[C@@H](C)Oc1nn(-c2cnccn2)c(-c2ccc(F)c(F)c2)c1Br [Example I-45],100,,90,100,100,100,100,80,100,80,,90,100,,,
COC(=O)[C@@H](C)Oc1nn(-c2cnccn2)c(-c2ccc(F)nc2)c1Cl [Example I-36],90,90,100,100,100,100,100,100,100,80,,90,100,,,
"CCOC(=O)COc1nn(-c2cnccn2)c(-c2ccc(F)nc2)c1Br [Example I-52, ethyl {[4-bromo-5-(6-fluoropyridin-3-yl)-1-(pyrazin-2-yl)-1H-pyrazol-3-yl]oxy}acetate]",,90,100,90,,80,100,,100,,,,,100,,
